Assays:
[1] = test system: Adult Merino wethers; assay: Subcutaneous infusion in sheep: staple plucking force and defleecing result; type: in vivo; conditions: for Plucking Force day 7: day 7 (in day 9 column)
Source text: One way of defining the extent of wool fibre weakening is by reference to the plucking force (Newtons/ktex, or N/ktex) required to remove the fleece. Methods for making this measurement are described by A. J. Gordon, Aust. J. of Exp. Agric. Anim. Husb. 20, 40-49, and Moore et al, Search. 12, 128-129.
Adult Merino wethers were housed under cover in individual pens or metabolic cages. The animals were offered a maintenance ration of 600 g of a pelleted mixture of 60% lucerne and 40% oats as one meal daily. Drinking water was provided ad lib.
(§1) Wethers were prepared for infusion experiments by the insertion of a polythene catheter below the skin so that the orifice lay near the centre of a 10×10 cm tattooed side on the right midside region of the body. The defleecing agent was dissolved in sterile saline solution and infused using a Harvard pump delivering a volume of 0.030 ml/min. Control animals were infused with saline solution alone.

[2] = Radioimmunoassay of plasma EGF correlated with plucking force; type: in vivo, sheep
Method: During the course of the above trails blood samples were taken from selected animals at approximately 1/2 hour intervals after the start of treatment. A correlation between radioimmunoassay determinations of plasma concentrations EGF and forces subsequently required to pluck wool from the skin of the sheep, pointed to the desirability of establishing a plasma concentration EGF of at least about 10 ng/ml for a period of at least about 15 hrs. in order to modify wool growth sufficiently for the fleece to be easily removed by hand.

[3] = test system: new born mice; conditions: injected into new born mice; cited from earlier work
[4] = test system: Adult Merino wethers; assay: Wool harvested from tattooed midside area after subcutaneous infusion (wool growth); type: in vivo, sheep
Method: as §1
Recovery to preinfusion growth levels was observed 2 weeks later. At lower dose levels wool growth inhibition was noticeably less, the maximum recorded effect being about 80% inhibition of wool growth. This occurred about 4 weeks after infusion, but normal wool growth was attained about 2 weeks later.

[5] = sheep 1, 36.3 kg, EGF dose total 27.5, 1.86 mg/kg^0.75, s.c. infusion 66 hr
[6] = sheep 3, 41.0 kg, EGF dose total 11.7, 0.74 mg/kg^0.75, s.c. infusion 28 hr
[7] = sheep 4, EGF dose total 11.7, s.c. infusion 28 hr
[8] = sheep 5, EGF dose total 10.0, s.c. infusion 28 hr
[9] = sheep 7, 49.0 kg, EGF dose total 5.8, 0.32 mg/kg^0.75, s.c. infusion 28 hr
[10] = sheep 8, 47.6 kg, EGF dose total 4.7, 0.26 mg/kg^0.75, s.c. infusion 28 hr
[11] = sheep 9, 47.4 kg, EGF dose total 4.7, 0.26 mg/kg^0.75, s.c. infusion 28 hr
[12] = sheep 10, 42.0 kg, EGF dose total 4.7, 0.28 mg/kg^0.75, s.c. infusion 26.5 hr
[13] = sheep 12, 45.4 kg, EGF dose total 2.9, 0.17 mg/kg^0.75, s.c. infusion 28 hr
[14] = sheep 13, 30.6 kg, EGF dose total 2.4, 0.19 mg/kg^0.75, s.c. infusion 25 hr
[15] = sheep 14, 29.4 kg, EGF dose total 2.0, 0.16 mg/kg^0.75, s.c. infusion 26.5 hr
[16] = sheep 16, EGF dose total 1.0, s.c. infusion 28 hr
[17] = sheep 17, 40.8 kg, EGF dose total 1.0, 0.06 mg/kg^0.75, s.c. infusion 28 hr
[18] = sheep 19, 31.8 kg, EGF dose total 5.0, 0.37 mg/kg^0.75, s.c. infusion 7 hr
[19] = sheep 20, 41.0 kg, EGF dose total 5.0, 0.31 mg/kg^0.75, s.c. infusion 7 hr
[20] = sheep 21, 41.9 kg, EGF dose total 5.0, 0.30 mg/kg^0.75, s.c. infusion 7 hr
[21] = sheep 22, 45.0 kg, EGF dose total 5.0, 0.29 mg/kg^0.75, s.c. infusion 7 hr
[22] = sheep 23, 50.6 kg, EGF dose total 5.0, 0.26 mg/kg^0.75, s.c. infusion 7 hr
[23] = sheep 24, 28.6 kg, EGF dose total 2.4, 0.20 mg/kg^0.75, s.c. infusion 48 hr
[24] = sheep 25, 28.4 kg, EGF dose total 2.4, 0.19 mg/kg^0.75, s.c. infusion 48 hr
[25] = sheep 26, 42.0 kg, EGF 1-45 dose total 4.9, 0.30 mg/kg^0.75, s.c. infusion 26.5 hr
[26] = sheep 27, EGF 1-45 dose total 1.0, s.c. infusion 28 hr

EGF: polypeptide of 53 amino acids prepared from the submaxillary glands of adult male mice
Fleece removal ([1]; s.c. infusion at rates as low as 0.16 mg EGF/kg^0.75): consistently allowed fleece to be easily removed | Time to casting of the whole fleece ([1]; s.c. infusion of amounts greater than about 0.25 mg EGF/kg^0.75): ≤ 7 days | Fleece result ([1]; s.c. infusions less than 0.25 mg EGF/kg^0.75): fleeces were retained but staples could easily be removed by hand | Plucking Force day 1 [1, 5]: 12.2 N/ktex | Plucking Force day 9 [1, 5]: 0.1 N/ktex | Result [1, 5]: Fleece cast | Plucking Force day 1 [1, 6]: 8.9 N/ktex | Plucking Force day 9 [1, 6]: 0 N/ktex | Result [1, 6]: Fleece cast | Plucking Force day 1 [1, 7]: 3.4 N/ktex | Result [1, 7]: Fleece cast | Plucking Force day 7 [1, 7]: 0.3 N/ktex | Plucking Force day 1 [1, 8]: 4.1 N/ktex | Result [1, 8]: Fleece cast | Plucking Force day 7 [1, 8]: 0.2 N/ktex | Plucking Force day 1 [1, 9]: 7.5 N/ktex | Plucking Force day 9 [1, 9]: 0.4 N/ktex | Result [1, 9]: Fleece cast | Plucking Force day 1 [1, 10]: 21.3 N/ktex | Plucking Force day 9 [1, 10]: 2.1 N/ktex | Result [1, 10]: Fleece cast | Plucking Force day 1 [1, 11]: 12.5 N/ktex | Plucking Force day 9 [1, 11]: 1.4 N/ktex | Result [1, 11]: Fleece cast | Plucking Force day 1 [1, 12]: 7.6 N/ktex | Plucking Force day 9 [1, 12]: 0.1 N/ktex | Result [1, 12]: Fleece cast | Plucking Force day 1 [1, 13]: 6.6 N/ktex | Plucking Force day 9 [1, 13]: 0.6 N/ktex | Result [1, 13]: Weakened fibre | Plucking Force day 1 [1, 14]: 11.3 N/ktex | Plucking Force day 9 [1, 14]: 2.1 N/ktex | Result [1, 14]: Weakened fibre | Plucking Force day 1 [1, 15]: 9.3 N/ktex | Plucking Force day 9 [1, 15]: 1.5 N/ktex | Result [1, 15]: Weakened fibre | Plucking Force day 1 [1, 16]: 5.5 N/ktex | Plucking Force day 9 [1, 16]: 3.6 N/ktex | Result [1, 16]: Weakened fibre | Plucking Force day 1 [1, 17]: 10.6 N/ktex | Plucking Force day 9 [1, 17]: 8.7 N/ktex | Result [1, 17]: No effect | Plucking Force day 1 [1, 18]: 7.0 N/ktex | Plucking Force day 9 [1, 18]: 0.4 N/ktex | Result [1, 18]: Fleece cast | Plucking Force day 1 [1, 19]: 17.9 N/ktex | Plucking Force day 9 [1, 19]: 1.0 N/ktex | Result [1, 19]: Fleece cast | Plucking Force day 1 [1, 20]: 11.4 N/ktex | Plucking Force day 9 [1, 20]: 0.8 N/ktex | Result [1, 20]: Fleece cast | Plucking Force day 1 [1, 21]: 9.0 N/ktex | Plucking Force day 9 [1, 21]: 1.0 N/ktex | Result [1, 21]: Fleece cast | Plucking Force day 1 [1, 22]: 12.7 N/ktex | Plucking Force day 9 [1, 22]: 2.8 N/ktex | Result [1, 22]: Fleece cast | Plucking Force day 1 [1, 23]: 14.8 N/ktex | Plucking Force day 9 [1, 23]: 3.2 N/ktex | Result [1, 23]: Weakened fibre | Plucking Force day 1 [1, 24]: 11.7 N/ktex | Plucking Force day 9 [1, 24]: 2.4 N/ktex | Result [1, 24]: Weakened fibre | Period of plasma concentration needed for fleece to be easily removed by hand ([2]; at plasma EGF of at least about 10 ng/ml): at least 15 hrs | Plasma concentration EGF needed for fleece to be easily removed by hand ([2]; radioimmunoassay, correlated with plucking force): at least 10 ng/ml | Effect on body growth rate and hair growth [3]: can inhibit body growth rate and hair growth | Wool production ([4]; 0.74 and 1.86 mg EGF/kg^0.75, 2 weeks after the start of infusion): declined to near zero | Time to recovery to preinfusion growth levels ([4]; 0.74 and 1.86 mg EGF/kg^0.75, counted after the near-zero point (2 weeks after start)): 2 weeks | Time of maximum wool growth inhibition after infusion ([4]; lower dose levels): about 4 weeks | Time to normal wool growth after maximum inhibition ([4]; lower dose levels): about 2 weeks | Maximum inhibition of wool growth ([4]; lower dose levels (below 0.74 mg EGF/kg^0.75)): about 80%

EGF 1-45: derivative prepared by tryptic digestion of the intact EGF peptide (NSYPGCPSSYDGYCLNGGVCMHIESLDSYTCNCVIGYSGDRCQTR; not fully specified; Epidermal growth factor; UniProt P01132 977-1021, looked up, fragment)
Infusion results compared with EGF ([1]; s.c. infusion): closely similar results | Plucking Force day 1 [1, 25]: 5.6 N/ktex | Plucking Force day 9 [1, 25]: 0.3 N/ktex | Result [1, 25]: Fleece cast | Plucking Force day 1 [1, 26]: 4.1 N/ktex | Plucking Force day 9 [1, 26]: 3.1 N/ktex | Result [1, 26]: Weakened fibre

From US4490365A, “Defleecing compounds” (Commonwealth Scientifique & Industrial Research Organization, priority 1980, dated 1984)
